Experiments:
[1] = Metabolic stability in mouse liver microsomes assessed as hepatic extraction ratio at 1 uM preincubated for 5 mins followed by NADPH addition measured for 5 to 60 mins by LC-MS/MS analysis; assay type: ADME, Microsome; conditions: time 10-65 min, read-out: ERH
[2] = molecular target: Beta-2 adrenergic receptor (Homo sapiens) (UniProt P07550); experiment: Negative allosteric modulation of beta-2 adrenergic receptor (unknown origin) transfected in HEK293 cells assessed as decrease in cAMP accumulation at 50 uM preincubated for 20 mins followed by ISO treatment for 5 mins for by Glo sensor assay relative to 4-((2S)-3-(((S)-3-(3-bromophenyl)-1-(methylamino)-1-oxopropan-2-yl)amino)-2-(2-cyclohexyl-2-phenylacetamido)-3-oxopropyl)benzamide; assay type: functional, cell-based; conditions: filed as negative allosteric modulator, time 25.0 min
[3] = Metabolic stability in human liver microsomes assessed as hepatic extraction ratio at 1 uM preincubated for 5 mins followed by NADPH addition measured for 5 to 60 mins by LC-MS/MS analysis; assay type: ADME, Microsome; conditions: time 10-65 min, read-out: ERH
[4] = Metabolic stability in human liver microsomes assessed as half life at 1 uM preincubated for 5 mins followed by NADPH addition measured for 5 to 60 mins by LC-MS/MS analysis; assay type: ADME, Microsome; conditions: time 10-65 min
[5] = Metabolic stability in mouse liver microsomes assessed as half life at 1 uM preincubated for 5 mins followed by NADPH addition measured for 5 to 60 mins by LC-MS/MS analysis; assay type: ADME, Microsome; conditions: time 10-65 min
[6] = molecular target: Beta-2 adrenergic receptor (Homo sapiens) (UniProt P07550); experiment: Potency index, ratio of 4-((2S)-3-(((S)-3-(3-bromophenyl)-1-(methylamino)-1-oxopropan-2-yl)amino)-2-(2-cyclohexyl-2-phenylacetamido)-3-oxopropyl)benzamide Imax to test compound Imax for negative allosteric modulation of beta-2 adrenergic receptor (unknown origin) transfected in HEK293 cells assessed as decrease in cAMP accumulation at 50 uM preincubated for 20 mins followed by ISO treatment for 5 mins for by Glo sensor assay; assay type: functional, cell-based; conditions: filed as negative allosteric modulator, time 25.0 min

Sequence of Beta-2 adrenergic receptor (Homo sapiens) (P07550 whole entry, looked up): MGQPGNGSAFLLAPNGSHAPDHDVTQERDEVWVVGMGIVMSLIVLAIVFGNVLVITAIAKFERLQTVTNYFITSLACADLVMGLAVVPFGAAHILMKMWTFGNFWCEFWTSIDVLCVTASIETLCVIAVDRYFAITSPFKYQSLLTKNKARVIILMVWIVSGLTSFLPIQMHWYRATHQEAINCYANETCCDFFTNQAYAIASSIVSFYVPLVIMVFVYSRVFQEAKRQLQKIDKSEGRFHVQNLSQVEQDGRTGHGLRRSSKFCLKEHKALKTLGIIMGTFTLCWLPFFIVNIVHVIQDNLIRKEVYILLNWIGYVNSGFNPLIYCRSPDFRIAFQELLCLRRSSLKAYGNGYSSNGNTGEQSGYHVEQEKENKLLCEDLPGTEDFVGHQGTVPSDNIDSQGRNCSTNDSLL

Question: Which hepatic extraction ratio at 1 µM [1] does the source give for `CNC(=O)[C@H](Cc1cccc(Br)c1)NC(=O)c1cc(-c2ccccc2)nn1Cc1ccccc1F` here?
Answer: The hepatic extraction ratio at 1 µM was 0.721.

Question: What about the Imax [2] of the same compound?
Answer: Its Imax is 143%.

Question: And the hepatic extraction ratio at 1 µM [3]?
Answer: Its hepatic extraction ratio at 1 µM is 0.835.

Question: And the half-life at 1 µM [4]?
Answer: The half-life at 1 µM was 41.5 min.

Question: And the half-life at 1 µM [5]?
Answer: The half-life at 1 µM was 58.7 min.

Question: What about the Ratio [6] of the same compound?
Answer: Its Ratio is 1.43.

Question: Which Imax [2] does the source give for `CNC(=O)[C@H](Cc1cccc(Br)c1)NC(=O)c1cc(-c2ccccc2)nn1Cc1ccccc1Cl` here?
Answer: Its Imax is 114%.

Question: What about the Ratio [6] of the same compound?
Answer: The Ratio was 1.14.

Question: With `CNC(=O)[C@H](Cc1cccc(Br)c1)NC(=O)c1cc(-c2ccccc2[N+](=O)[O-])nn1Cc1cccc(Br)c1` as the compound, how does the Imax [2] read?
Answer: The Imax was 120%.

Question: And the Ratio [6]?
Answer: Its Ratio is 1.2.

Question: Which Imax [2] does the source give for `CNC(=O)[C@H](Cc1cccc(Br)c1)NC(=O)c1cc(-c2ccccc2)nn1Cc1ccc(C#N)cc1` here?
Answer: Its Imax is 100%.

Question: What about the Ratio [6] of the same compound?
Answer: Its Ratio is 1.

Question: For `CNC(=O)[C@H](Cc1cccc(Br)c1)NC(=O)c1cc(-c2ccccc2)nn1Cc1cccc(F)c1`, which Imax [2] is on record?
Answer: Its Imax is 133%.

Question: What about the Ratio [6] of the same compound?
Answer: The Ratio was 1.33.

Question: Which results are given for `CNC(=O)[C@H](Cc1cccc(Br)c1)NC(=O)c1cc(-c2cccc(Br)c2)nn1Cc1cccc(Br)c1`?
Answer: Imax [2]: 100%; Ratio [6]: 1

Question: Which Imax [2] does the source give for `CNC(=O)[C@H](Cc1cccc(Br)c1)NC(=O)c1cc(-c2ccccc2)nn1Cc1ccc(Cl)cc1` here?
Answer: The Imax was 114%.

Question: What about the Ratio [6] of the same compound?
Answer: Its Ratio is 1.14.

Question: With `CNC(=O)[C@H](Cc1cccc(Br)c1)NC(=O)c1cc(-c2ccccc2Br)nn1Cc1cccc(Br)c1` as the compound, how does the Imax [2] read?
Answer: Its Imax is 91%.

Question: What about the Ratio [6] of the same compound?
Answer: Its Ratio is 0.91.

Question: What does the source list for `CNC(=O)[C@H](Cc1cccc(Br)c1)NC(=O)[C@H](Cc1ccc(C(N)=O)cc1)NC(=O)C(c1ccccc1)C1CCCCC1` (stereo not given in full)?
Answer: hepatic extraction ratio at 1 µM [1]: 0.986; hepatic extraction ratio at 1 µM [3]: 0.993; half-life at 1 µM [4]: 1.53 min; half-life at 1 µM [5]: 2.19 min

Question: Which Imax [2] does the source give for `CNC(=O)[C@H](Cc1cccc(Br)c1)NC(=O)c1cc(-c2ccccc2)nn1Cc1cccc(Cl)c1` here?
Answer: Its Imax is 114%.

Question: What about the Ratio [6] of the same compound?
Answer: Its Ratio is 1.14.

Question: Which Imax [2] does the source give for `CNC(=O)[C@H](Cc1cccc(Br)c1)NC(=O)c1cc(-c2ccccc2)nn1Cc1ccc(F)cc1` here?
Answer: The Imax was 114%.

Question: What about the Ratio [6] of the same compound?
Answer: The Ratio was 1.14.

Question: What does the source list for `CNC(=O)[C@H](Cc1cccc(Br)c1)NC(=O)c1cc(-c2ccc(Br)cc2)nn1Cc1cccc(Br)c1`?
Answer: Imax [2]: 109%; Ratio [6]: 1.09

Question: Which Imax [2] does the source give for `CNC(=O)[C@H](Cc1cccc(Br)c1)NC(=O)c1cc(-c2ccc(F)cc2)nn1Cc1cccc(Br)c1` here?
Answer: Its Imax is 130%.

Question: What about the Ratio [6] of the same compound?
Answer: Its Ratio is 1.3.

Question: What does the source list for `CNC(=O)[C@H](Cc1cccc(Br)c1)NC(=O)c1cc(-c2cccc(Cl)c2)nn1Cc1cccc(Br)c1`?
Answer: Imax [2]: 127%; Ratio [6]: 1.27

Question: Which Imax [2] does the source give for `CNC(=O)[C@H](Cc1cccc(Br)c1)NC(=O)c1cc(-c2ccccc2)nn1Cc1ccccc1C#N` here?
Answer: The Imax was 67%.

Question: What about the Ratio [6] of the same compound?
Answer: Its Ratio is 0.67.

Question: Which results are given for `CNC(=O)[C@H](Cc1cccc(Br)c1)NC(=O)c1cc(-c2ccccc2)nn1Cc1cccc(I)c1`?
Answer: Imax [2]: 125%; Ratio [6]: 1.25

Question: With `CNC(=O)[C@H](Cc1cccc(Br)c1)NC(=O)c1cc(-c2ccccc2Cl)nn1Cc1cccc(Br)c1` as the compound, how does the Imax [2] read?
Answer: Its Imax is 118%.

Question: What about the Ratio [6] of the same compound?
Answer: Its Ratio is 1.18.

Source: ChEMBL document CHEMBL5576071, “Structure optimization of Cmpd-15 as negative allosteric modulators for the β2-adrenergic receptor” (Bioorg Med Chem, 2024)
